# Data as given in ChEMBL document CHEMBL3885881, “DrugMatrix”.
# Organism: Rattus norvegicus
# Assay: DrugMatrix - Regimen: Daily Repeat
# Assay type: toxicity, organism-based, Sprague-Dawley
# Set-up: regimen Daily Repeat, gender Male, age 6-8 weeks
# Settings: in vivo, po, route oral GAVAGE, vehicle .5 % CMC; for ABSOLUTE BASOPHIL / ABSOLUTE EOSINOPHIL / ABSOLUTE LYMPHOCYTE / ABSOLUTE MONOCYTE / ABSOLUTE SEGMENTED NEUTROPHIL / BASOPHIL / EOSINOPHIL / ERYTHROCYTE COUNT / HEMATOCRIT / HEMOGLOBIN / LEUKOCYTE COUNT / LYMPHOCYTE / MEAN CORPUSCULAR HEMOGLOBIN / MEAN CORPUSCULAR HEMOGLOBIN CONCENTRATION / MEAN CORPUSCULAR VOLUME / MONOCYTE / NEUTROPHIL / NUCLEATED RED BLOOD CELLS / PLATELET COUNT: tissue Blood; for ALANINE AMINOTRANSFERASE / ALBUMIN / ALKALINE PHOSPHATASE / ASPARTATE AMINOTRANSFERASE / BLOOD UREA NITROGEN / CARBON DIOXIDE / CHLORIDE / CHOLESTEROL / CREATINE PHOSPHOKINASE / CREATININE / GLUCOSE / LACTATE DEHYDROGENASE / LIPASE / PHOSPHORUS / POTASSIUM / SODIUM / TOTAL BILIRUBIN / TOTAL PROTEIN / URIC ACID: tissue Plasma
# [1] = 8 mg/kg, 72 h, dose level High, time 3 day
# [2] = 8 mg/kg, 120 h, dose level High, time 5 day
# [3] = […], 72 h, dose 2.1 mg/Kg, dose level Low, time 3 day
# [4] = […], 120 h, dose 2.1 mg/Kg, dose level Low, time 5 day
smiles,measurement,setting,value
C=C1CC[C@H](O)C/C1=C/C=C1\CCC[C@]2(C)[C@@H]([C@H](C)CCCC(C)C)CC[C@@H]12 [CHOLECALCIFEROL],ABSOLUTE BASOPHIL,[1],0 CELLS/uL
same,ABSOLUTE EOSINOPHIL,[1],42 CELLS/uL
same,ABSOLUTE LYMPHOCYTE,[1],8592.67 CELLS/uL
same,ABSOLUTE MONOCYTE,[1],336 CELLS/uL
same,ABSOLUTE SEGMENTED NEUTROPHIL,[1],5029.33 CELLS/uL
same,BASOPHIL,[1],0%
same,EOSINOPHIL,[1],0.33%
same,ERYTHROCYTE COUNT,[1],5.75 x10E6/uL
same,HEMATOCRIT,[1],36.93%
same,HEMOGLOBIN,[1],14.13 G/DL
same,LEUKOCYTE COUNT,[1],14 x10E3/uL
same,LYMPHOCYTE,[1],61.67%
same,MEAN CORPUSCULAR HEMOGLOBIN,[1],24.7 pg
same,MEAN CORPUSCULAR HEMOGLOBIN CONCENTRATION,[1],38.27 G/DL
same,MEAN CORPUSCULAR VOLUME,[1],64.53 fL
same,MONOCYTE,[1],2.33%
same,NEUTROPHIL,[1],35.67%
same,NUCLEATED RED BLOOD CELLS,[1],0.33 /100WBC
same,PLATELET COUNT,[1],1172.33 x10E3/uL
same,ALANINE AMINOTRANSFERASE,[1],38.67 u/L
same,ALBUMIN,[1],4 G/DL
same,ALKALINE PHOSPHATASE,[1],218 u/L
same,ASPARTATE AMINOTRANSFERASE,[1],93 u/L
same,BLOOD UREA NITROGEN,[1],15.67 mg/dL
same,CARBON DIOXIDE,[1],25 mmol/L
same,CHLORIDE,[1],99.67 MEQ/L
same,CHOLESTEROL,[1],85.33 mg/dL
same,CREATINE PHOSPHOKINASE,[1],273 u/L
same,CREATININE,[1],0.19 mg/dL
same,GLUCOSE,[1],119.67 mg/dL
same,LACTATE DEHYDROGENASE,[1],381 u/L
same,LIPASE,[1],8.33 u/L
same,PHOSPHORUS,[1],12.67 mg/dL
same,POTASSIUM,[1],6.05 MEQ/L
same,SODIUM,[1],144.53 MEQ/L
same,TOTAL BILIRUBIN,[1],0.1 mg/dL
same,TOTAL PROTEIN,[1],6.3 G/DL
same,URIC ACID,[1],1.7 mg/dL
same,ABSOLUTE BASOPHIL,[2],0 CELLS/uL
same,ABSOLUTE EOSINOPHIL,[2],61.33 CELLS/uL
same,ABSOLUTE LYMPHOCYTE,[2],15719.67 CELLS/uL
same,ABSOLUTE MONOCYTE,[2],721.33 CELLS/uL
same,ABSOLUTE SEGMENTED NEUTROPHIL,[2],1931 CELLS/uL
same,BASOPHIL,[2],0%
same,EOSINOPHIL,[2],0.33%
same,ERYTHROCYTE COUNT,[2],6.73 x10E6/uL
same,HEMATOCRIT,[2],40.8%
same,HEMOGLOBIN,[2],16.17 G/DL
same,LEUKOCYTE COUNT,[2],18.43 x10E3/uL
same,LYMPHOCYTE,[2],84.33%
same,MEAN CORPUSCULAR HEMOGLOBIN,[2],24 pg
same,MEAN CORPUSCULAR HEMOGLOBIN CONCENTRATION,[2],39.67 G/DL
same,MEAN CORPUSCULAR VOLUME,[2],60.73 fL
same,MONOCYTE,[2],4%
same,NEUTROPHIL,[2],11.33%
same,NUCLEATED RED BLOOD CELLS,[2],0.33 /100WBC
same,PLATELET COUNT,[2],1207.33 x10E3/uL
same,ALANINE AMINOTRANSFERASE,[2],32.67 u/L
same,ALBUMIN,[2],3.77 G/DL
same,ALKALINE PHOSPHATASE,[2],216 u/L
same,ASPARTATE AMINOTRANSFERASE,[2],95.67 u/L
same,BLOOD UREA NITROGEN,[2],30.67 mg/dL
same,CARBON DIOXIDE,[2],29.33 mmol/L
same,CHLORIDE,[2],97 MEQ/L
same,CHOLESTEROL,[2],84.33 mg/dL
same,CREATINE PHOSPHOKINASE,[2],292 u/L
same,CREATININE,[2],0.31 mg/dL
same,GLUCOSE,[2],184 mg/dL
same,LACTATE DEHYDROGENASE,[2],195.33 u/L
same,LIPASE,[2],8 u/L
same,PHOSPHORUS,[2],12.17 mg/dL
same,POTASSIUM,[2],6.13 MEQ/L
same,SODIUM,[2],142.43 MEQ/L
same,TOTAL BILIRUBIN,[2],0.1 mg/dL
same,TOTAL PROTEIN,[2],6.37 G/DL
same,URIC ACID,[2],2.97 mg/dL
same,ABSOLUTE BASOPHIL,[3],0 CELLS/uL
same,ABSOLUTE EOSINOPHIL,[3],0 CELLS/uL
same,ABSOLUTE LYMPHOCYTE,[3],13778.67 CELLS/uL
same,ABSOLUTE MONOCYTE,[3],303 CELLS/uL
same,ABSOLUTE SEGMENTED NEUTROPHIL,[3],1018.33 CELLS/uL
same,BASOPHIL,[3],0%
same,EOSINOPHIL,[3],0%
same,ERYTHROCYTE COUNT,[3],5.26 x10E6/uL
same,HEMATOCRIT,[3],33.23%
same,HEMOGLOBIN,[3],13.23 G/DL
same,LEUKOCYTE COUNT,[3],15.1 x10E3/uL
same,LYMPHOCYTE,[3],91.33%
same,MEAN CORPUSCULAR HEMOGLOBIN,[3],25.17 pg
same,MEAN CORPUSCULAR HEMOGLOBIN CONCENTRATION,[3],39.83 G/DL
same,MEAN CORPUSCULAR VOLUME,[3],63.27 fL
same,MONOCYTE,[3],2%
same,NEUTROPHIL,[3],6.67%
same,NUCLEATED RED BLOOD CELLS,[3],0.33 /100WBC
same,PLATELET COUNT,[3],1338.67 x10E3/uL
same,ALANINE AMINOTRANSFERASE,[3],64.33 u/L
same,ALBUMIN,[3],4.5 G/DL
same,ALKALINE PHOSPHATASE,[3],325 u/L
same,ASPARTATE AMINOTRANSFERASE,[3],90.33 u/L
same,BLOOD UREA NITROGEN,[3],18 mg/dL
same,CARBON DIOXIDE,[3],24 mmol/L
same,CHLORIDE,[3],102.33 MEQ/L
same,CHOLESTEROL,[3],85.67 mg/dL
same,CREATINE PHOSPHOKINASE,[3],170.67 u/L
same,CREATININE,[3],0.22 mg/dL
same,GLUCOSE,[3],154.33 mg/dL
same,LACTATE DEHYDROGENASE,[3],246.33 u/L
same,LIPASE,[3],9.33 u/L
same,PHOSPHORUS,[3],15.17 mg/dL
same,POTASSIUM,[3],7.26 MEQ/L
same,SODIUM,[3],149.17 MEQ/L
same,TOTAL BILIRUBIN,[3],0.33 mg/dL
same,TOTAL PROTEIN,[3],6.3 G/DL
same,URIC ACID,[3],1.63 mg/dL
same,ABSOLUTE BASOPHIL,[4],0 CELLS/uL
same,ABSOLUTE EOSINOPHIL,[4],46.67 CELLS/uL
same,ABSOLUTE LYMPHOCYTE,[4],13112 CELLS/uL
same,ABSOLUTE MONOCYTE,[4],47.33 CELLS/uL
same,ABSOLUTE SEGMENTED NEUTROPHIL,[4],1427.33 CELLS/uL
same,BASOPHIL,[4],0%
same,EOSINOPHIL,[4],0.33%
same,ERYTHROCYTE COUNT,[4],5.69 x10E6/uL
same,HEMATOCRIT,[4],37.6%
same,HEMOGLOBIN,[4],14.5 G/DL
same,LEUKOCYTE COUNT,[4],14.63 x10E3/uL
same,LYMPHOCYTE,[4],89.67%
same,MEAN CORPUSCULAR HEMOGLOBIN,[4],25.53 pg
same,MEAN CORPUSCULAR HEMOGLOBIN CONCENTRATION,[4],38.57 G/DL
same,MEAN CORPUSCULAR VOLUME,[4],66.17 fL
same,MONOCYTE,[4],0.33%
same,NEUTROPHIL,[4],9.67%
same,NUCLEATED RED BLOOD CELLS,[4],0.33 /100WBC
same,PLATELET COUNT,[4],1071 x10E3/uL
same,ALANINE AMINOTRANSFERASE,[4],53 u/L
same,ALBUMIN,[4],4.6 G/DL
same,ALKALINE PHOSPHATASE,[4],301.33 u/L
same,ASPARTATE AMINOTRANSFERASE,[4],84 u/L
same,BLOOD UREA NITROGEN,[4],19.67 mg/dL
same,CARBON DIOXIDE,[4],31.67 mmol/L
same,CHLORIDE,[4],97.33 MEQ/L
same,CHOLESTEROL,[4],72.33 mg/dL
same,CREATINE PHOSPHOKINASE,[4],267.33 u/L
same,CREATININE,[4],0.24 mg/dL
same,GLUCOSE,[4],143.33 mg/dL
same,LACTATE DEHYDROGENASE,[4],287 u/L
same,LIPASE,[4],8.67 u/L
same,PHOSPHORUS,[4],11.33 mg/dL
same,POTASSIUM,[4],6.64 MEQ/L
same,SODIUM,[4],141.97 MEQ/L
same,TOTAL BILIRUBIN,[4],0.2 mg/dL
same,URIC ACID,[4],1.67 mg/dL
